In the NIST ThermoML archive (doi:10.1021/je400134d):
± gives the expanded uncertainty stated by the source.

Conditions: 101.33 kPa, Liquid; for speed of sound: Pulse-echo method; for mass density: Vibrating tube method

| Structure (SMILES) | speed of sound (293.15 K) | mass density (293.15 K) | speed of sound (298.15 K) | mass density (298.15 K) | speed of sound (303.15 K) | mass density (303.15 K) |
| --- | --- | --- | --- | --- | --- | --- |
| C1CCCCC1 [cyclohexane] | 1278 ± 1 m/s | 778.706 ± 0.15 kg/m3 | 1253.6 ± 0.9 m/s | 774.018 ± 0.16 kg/m3 | 1229.9 ± 0.9 m/s | 769.297 ± 0.16 kg/m3 |
| CCCCCCC [heptane] | 1150.9 ± 0.9 m/s | 683.845 ± 0.18 kg/m3 | 1129.6 ± 0.9 m/s | 679.603 ± 0.18 kg/m3 | 1111.2 ± 0.9 m/s | 675.532 ± 0.19 kg/m3 |
| Cc1ccccc1 [toluene] | 1325.8 ± 0.9 m/s | 866.98 ± 0.1 kg/m3 | 1304.4 ± 0.8 m/s | 862.295 ± 0.11 kg/m3 | 1283.7 ± 0.8 m/s | 857.725 ± 0.11 kg/m3 |
| CNc1ccccc1 [N-methylaniline] | 1582.7 ± 2.2 m/s | 986.444 ± 0.82 kg/m3 | 1564.7 ± 2.2 m/s | 982.487 ± 0.82 kg/m3 | 1545.8 ± 2.2 m/s | 978.541 ± 0.81 kg/m3 |
